Measured values from US4812583A, “Substituted acyloxyalkylphenylethylene inhibitors of 3-hydroxy-3-methylglutaryl-coa reductase” (American Home Products Corporation, priority 1987, dated 1989).
Like-named read-outs stand apart in the source and are kept apart here.

Key:
[1] = molecular target: T1, HMG-CoA Reductase (Rattus norvegicus, UniProt P51639); experiment: Inhibition of HMG-CoA reductase (rat liver microsomal fraction, [14C] HMG-CoA); type: biochemical; settings: rat liver microsomal enzyme, pH 7.5, 37° C., 20 min
T1 construct: the microsomal fraction is isolated by differential ultra centrifugation to obtain the HMG-CoA reductase enzyme; from tissue; host or cells: rat liver, microsomal fraction (cholestyramine-fed rats)
T1 sequence (P51639 1-887): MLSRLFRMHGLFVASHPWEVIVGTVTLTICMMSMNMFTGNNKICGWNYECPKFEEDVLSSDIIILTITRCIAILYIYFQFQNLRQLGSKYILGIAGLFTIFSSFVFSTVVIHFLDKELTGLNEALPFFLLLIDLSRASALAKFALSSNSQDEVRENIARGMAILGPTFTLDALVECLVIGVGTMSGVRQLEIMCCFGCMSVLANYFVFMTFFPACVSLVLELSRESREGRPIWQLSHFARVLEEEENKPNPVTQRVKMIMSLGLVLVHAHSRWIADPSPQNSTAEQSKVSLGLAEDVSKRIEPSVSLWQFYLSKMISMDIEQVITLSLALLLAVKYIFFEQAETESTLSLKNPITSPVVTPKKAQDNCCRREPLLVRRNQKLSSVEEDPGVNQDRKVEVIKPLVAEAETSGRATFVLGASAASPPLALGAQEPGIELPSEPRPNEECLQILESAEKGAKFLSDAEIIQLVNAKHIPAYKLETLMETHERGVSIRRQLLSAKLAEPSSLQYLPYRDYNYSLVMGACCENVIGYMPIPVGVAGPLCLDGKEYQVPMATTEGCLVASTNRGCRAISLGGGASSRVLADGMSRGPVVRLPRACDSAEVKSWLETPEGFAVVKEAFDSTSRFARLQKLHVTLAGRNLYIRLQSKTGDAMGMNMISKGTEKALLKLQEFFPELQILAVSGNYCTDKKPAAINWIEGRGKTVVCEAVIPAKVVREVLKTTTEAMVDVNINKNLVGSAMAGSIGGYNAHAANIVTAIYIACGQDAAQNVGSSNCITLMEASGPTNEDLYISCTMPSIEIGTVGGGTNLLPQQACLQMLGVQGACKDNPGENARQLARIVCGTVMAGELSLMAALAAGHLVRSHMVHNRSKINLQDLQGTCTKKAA
Text: The HMG-CoA reductase inhibitory properties of representative compounds of this invention were established by subjecting the compounds to the following standard experimental test procedure adapted from Rodwell et al., Adv. Lipid Res. 14 1, 1976; Endo et al., FEBS Letters 72 323, 1976; and Tanzawa et al., Biochemia et Biophysica Acta 488 97, 1977.
Rat livers obtained from rats fed on a diet containing 3% cholestyramine and maintained on a reverse lighting regimen for three weeks are homogenized and the microsomal fraction is isolated by differential ultra centrifugation to obtain the HMG-CoA reductase enzyme. To a preincubated (five minutes at 37° C.) solution of the compound being tested (as either the lactone and/or dihydroxy sodium carboxylate in amounts from 10^-3 to 10^-6 M) in TEDKS100 pH (Tris® 40 mM; EDTA 1 mM; dithiothreitol 5 mM; KCl 70 mM; sucrose 100 mM) 7.5 buffer or DMSO dissolved in an assay medium containing 20 μl of 2.5M KCl; 20 μl NADPH (reduced nicotinamide adenine dinucleotide phosphate) (7.5 mM); and 40 μl of labeled (RS) HMG-CoA (3-^14 C; […]; 200 μM) is added 10 μl of preincubated (five minutes at 37° C.) microsomal fraction (produced above) to obtain a total volume of 125 μl. After a twenty minute incubation period at 37° C., reaction of the enzyme is terminated by addition of 10 μl of 70% of HClO4. The assay tubes are then centrifuged for two minutes in a Beckman microfuge II.
To 100 μl of the supernatant liquid is added 10 μl of non-radioactivemevalonic acid lactone (0.25M in 8 mM H2 SO4). An aliquot of the sample is eluted with 8 mM H2 SO4 through Bio Rad Aminex HPX-87H (HPLC; Hewlett-Packard Model 1084B) at a flow rate of 1 mL/minute. The effluent is fractionated, Hydrofluor® is added and radioactivity of the [^14 C] mevalonolactone produced by reduction of [^14 C] HMG-CoA determined with a scintillation counter.
The percent inhibition of HMG-CoA reductase activity is obtained by comparison with a control assay devoid of the test compound. The inhibitory concentration (IC50) is calculated for the various test compounds.

[2] = test system: biosynthesis of cholesterol; settings: background; cited from earlier work
[3] = Dihydroxycarboxylate form (dihydroxy sodium carboxylate), read-out: Inhibition of HMG-CoA Reductase (IC50, M), Dihydroxycarboxylate
[4] = Lactone form, read-out: Inhibition of HMG-CoA Reductase (IC50, M), Lactone

Row | SMILES | IC50 [1, 3] [M] | IC50 [1, 4] [M] | inhibition of cholesterol biosynthesis, in words [2]
1 | CC[C@H](C)C(=O)O[C@H]1C[C@@H](C)C=C2C=C[C@H](C)[C@H](CC[C@@H]3C[C@@H](O)CC(=O)O3)[C@H]21 [Mevinolin, reference compound] | 5e-09 | 6e-07 | more effectively
2 | CCCCCCCCCC(OC(=O)C(C)(C)CC)c1cc(C)cc(C)c1/C=C/[C@@H]1C[C@@H](O)CC(=O)O1 (relative stereo) [Example 2, 2,2-Dimethylbutanoic acid[4α,6β(E)]-1-[2-[2-(tetrahydro-4-hydroxy-6-oxo-2H-pyran-2-yl)ethenyl]-3,5-dimethylphenyl]decyl ester] | > 0.0001 | > 0.001 | 
3 | CCC(C)(C)C(=O)OC(c1ccccc1)c1cc(C)cc(C)c1/C=C/[C@@H]1C[C@@H](O)CC(=O)O1 (relative stereo) [Example 3, 2,2-Dimethylbutanoic acid[4α,6β,(E)]-[[3,5-dimethyl-[2-[2-tetrahydro-4-hydroxy-6-oxo-2H-pyran-2-yl]ethenyl]phenyl]phenylmethyl]ester] | 6.2e-06 | 0.0017 | 
4 | CC[C@H](C)C(=O)O[C@H]1CCC=C2C=C[C@H](C)[C@H](CC[C@@H]3C[C@@H](O)CC(=O)O3)[C@H]21 [compactin] |  |  | could be inhibited
5 | CCCC(OC(=O)C(C)(C)CC)c1cc(C)cc(C)c1/C=C/[C@@H]1C[C@@H](O)CC(=O)O1 (relative stereo) [Example 1] | 1.7e-06 | 2.7e-06 | 
6 | CCC(C)(C)C(=O)OCc1cc(C)cc(C)c1/C=C/[C@@H]1C[C@@H](O)CC(=O)O1 (relative stereo) [Example 4] | 4e-05 | 5.7e-05 | 
